pIC50: −log10 of the molar value. Values joined by “and” are separate entries in the source; they are usually repeats but may differ in a detail not shown here. Equal entries are not always repeated. Where two headings read alike, the source gives them in different places.
Assays:
Whole blood B cells = assay: CD69 Whole Blood Assay; format: cell-based; conditions: Homo sapiens, B-cell, anti-IgM stimulated; for pIC50: read-out: average IC50; for IC50: read-out: average pIC50 (converted)
Procedure: Whole blood B cells are stimulated ex-vivo using anti-IgM. […] The subsequent autophosphorylation of Syk leads to initiation of a signalling cascade resulting in B cell activation as indicated by expression of the activation marker CD69 on the cell surface. CD20/CD69+ve whole blood B cells are detected by flow cytometry.
100 μl heparinised human blood was added to a 5 ml polypropylene tube containing 1 μl appropriately diluted compound solution and incubated for 25 min at 37° C. with 5% CO2. B cells were stimulated with 10 μl Fab′2 fragments of goat anti-human IgM (43 μg/ml final concentration) for a further 3.5 h under the conditions previously described. The red blood cells were lysed and all other cells fixed by the addition of 2 ml Lyse/Fix buffer for 10 min at room temperature.
The cells were stained using a cocktail of mouse anti-human CD20 FITC and mouse anti-human CD69 PE conjugated antibodies. CD20/CD69+ve B cells present in the sample were detected by flow cytometry.
Compound was prepared as a 10 mM stock in DMSO, further diluted down in DMSO to 1 mM and a dilution series prepared in DMSO using 7 successive 3-fold dilutions to give the final concentration range to be tested of 1×10^−5 to 4.57×10^−9M. Compound dilutions were prepared using the Biomek 2000 automated robotic pipetting system.

hERG = target: T1, hERG (Homo sapiens, UniProt Q12809); assay: Cy3B Dofetilide Fluoro-Ligand Binding Assay for hERG; conditions: membranes of CHO-K1 cells that express hERG, pH 7.4, probe Cy3b-Dofetilide fluoro-ligand, 1.0 nM, hERG-expressing CHO-K1 membranes
T1 construct: expressed in transfected cells; host or cells: CHO-K1 cells stably expressing human hERG; membrane fraction
Procedure: Compound potencies were determined by a fluoro-ligand^§ (Cy3b-Dofetilide) fluorescence polarisation assay.
hERG-expressing CHO-K1 membranes* (60 μg/ml) were incubated with 1.0 nM fluoro-ligand^§, in assay buffer (25 mM HEPES, 1.2 mM MgCl2, 100 mM KCl and 0.1% pluronic, pH adjusted to 7.4 using 5M KOH). The final potassium concentration in the assay was 100 mM. After 70 min mixing at room temperature, in the dark, 10 μl was dispensed into each well of a black LV Greiner 384-well plate containing 0.1 μl of test compound in DMSO. The plates were left to equilibrate for 2 h before reading on an Acquest™/Analyst™ imager. pIC50 data were generated using from an 11-point inhibition curve (top assay concentration of 50 μM and a 1:3 step-dilution), a […] curve-fit being applied using ABase and XC50 to analyse data and generate curve fits.
Chinese Hamster Ovary (CHO) cells stably expressing the human hERG receptor were grown to 80% confluency before being harvested by trypsinisation and subsequent centrifugation at 500 g for 10 min. Cell pellets were frozen at −80 C before membrane production. The frozen pellet was thawed on ice, re-suspended and homogenised in 10 volumes of membrane buffer (50 mM HEPES, pH 7.4, 1 mM EDTA, 1 mM PMSF, 2×10^-6M Pepstatin A). The membrane suspension was centrifuged for 20 min at 500 g, the pellet discarded and the supernatent spun again at 48,000 g for 30 min. Following the second centrifugation the remaining pellet containing the membrane fraction was re-suspended in an appropriate volume (4 ml for each ml of frozen cell pellet) and assayed for protein concentration.

SYK lysate = target: T2, SYK lysate (Homo sapiens, UniProt P43405); assay: Basic Syk Enzyme Activity; format: biochemical; conditions: read-out: average pIC50 (converted)
T2 construct: Stimulation of Ramos Cells with Anti-IgM Ab to Produce Syk & Preparation of Lysates; endogenous in cells; host or cells: Ramos B cells (human Burkitt's lymphoma, clone 296.4C10, ATCC), stimulated with anti-IgM and lysed in 1% Triton X-100
Procedure: 3 μl of SYK lysate diluted 16-fold in assay buffer (20 mM TRIS pH 7.4, 0.01% BSA, 0.1% Pluronic F-68) was added to wells containing 0.1 μl of various concentrations of compound or DMSO vehicle (1.7% final) in a Greiner low volume 384 well black plate. Following 15 min pre-incubation at room temperature, the reaction was initiated by the addition of 3 μl of substrate reagent containing Y7 Sox peptide, (Invitrogen Cat. # KNZ3071, 5 μM final), ATP (35 μM final) and MgCl2 (10 mM final) in assay buffer. The reaction was incubated at room temperature before measuring fluorescence intensity (λex 360/λem 485) on an Envision plate reader (Perkin Elmer Life Sciences, Waltham, Mass., USA) at 15 min and 55 min post-substrate addition.
Ramos B Cells (human B cells of Burkitt's lymphoma, clone 296.4C10, ATCC) were cultured in suspension in growth medium (RPMI-1640, Sigma; supplemented with 2 mM L-glutamine, Gibco; 10 mM Hepes, Sigma; 1 mM sodium pyruvate, Sigma; 10% v/v heat-inactivated FCS, Gibco). Cells were grown in Corning Cellstacks (6360 cm^2) in 1 liter volume and viability and cell density were monitored daily. Cells were maintained at <1.5×10e6/ml and >92% viability.
Cells were stimulated at 20×10^6 cells/ml using 15 ug/ml (final concentration) anti-IgM antibody. Following harvest (as described above), a total of 4×10^9 cells were resuspended in 180 ml pre-warmed (37° C.) DPBS in a Corning 500 ml centrifuge bottle. 20 ml anti-IgM antibody at 150 ug/ml were added to each 500 ml centrifuge bottle (working stock made up in DPBS pre-warmed to 37° C.). Cells were incubated for exactly 5 min at 37° C. following the addition of anti IgM antibody. Following 5 min stimulation, 300 ml ice-cold DPBS were added to each bottle to stop the stimulation (temperature drops to ˜12° C.) then cells were centrifuged at 2000 rpm (Sorvall Legend RT+ centrifuge—pre-chilled to 4° C.). Cells were washed by resuspension in ice-cold DPBS and centrifugation as above. The cell pellet was then lysed in ice-cold lysis buffer containing 1% triton-x-100 at a ratio of 150 ul/1×10^7 cells (i.e. 48 ml lysis buffer). Following the addition of lysis buffer, the cells were pipetted up & down & kept on ice for 15 min. The clarified lysate was then obtained by centrifugation (Sorvall Evolution RC (SLA-1500 rotor, ˜20,000 g (˜14,500 rpm), 45 min, 4° C.).
Lysate was aliquoted, snap-frozen on dry-ice & stored at −80° C. prior to assay.
Lysis Buffer: 50 mM TRIS pH7.5+150 mM NaCl+1% Triton-X-100+2 mM EGTA+1:100 dilution inhibitor cocktails (phosphatase inhibitor cocktail set II, calbiochem cat no. 524625 & protease inhibitor cocktail set V, calbiochem cat no. 539137)

[1] = as the free base, read-out: average IC50
[2] = form not stated (first list), read-out: average pIC50 (converted)
[3] = hydrochloric acid salts, read-out: average IC50
[4] = hydrochloric acid salts, read-out: average pIC50 (converted)

T1 sequence (Q12809 whole entry): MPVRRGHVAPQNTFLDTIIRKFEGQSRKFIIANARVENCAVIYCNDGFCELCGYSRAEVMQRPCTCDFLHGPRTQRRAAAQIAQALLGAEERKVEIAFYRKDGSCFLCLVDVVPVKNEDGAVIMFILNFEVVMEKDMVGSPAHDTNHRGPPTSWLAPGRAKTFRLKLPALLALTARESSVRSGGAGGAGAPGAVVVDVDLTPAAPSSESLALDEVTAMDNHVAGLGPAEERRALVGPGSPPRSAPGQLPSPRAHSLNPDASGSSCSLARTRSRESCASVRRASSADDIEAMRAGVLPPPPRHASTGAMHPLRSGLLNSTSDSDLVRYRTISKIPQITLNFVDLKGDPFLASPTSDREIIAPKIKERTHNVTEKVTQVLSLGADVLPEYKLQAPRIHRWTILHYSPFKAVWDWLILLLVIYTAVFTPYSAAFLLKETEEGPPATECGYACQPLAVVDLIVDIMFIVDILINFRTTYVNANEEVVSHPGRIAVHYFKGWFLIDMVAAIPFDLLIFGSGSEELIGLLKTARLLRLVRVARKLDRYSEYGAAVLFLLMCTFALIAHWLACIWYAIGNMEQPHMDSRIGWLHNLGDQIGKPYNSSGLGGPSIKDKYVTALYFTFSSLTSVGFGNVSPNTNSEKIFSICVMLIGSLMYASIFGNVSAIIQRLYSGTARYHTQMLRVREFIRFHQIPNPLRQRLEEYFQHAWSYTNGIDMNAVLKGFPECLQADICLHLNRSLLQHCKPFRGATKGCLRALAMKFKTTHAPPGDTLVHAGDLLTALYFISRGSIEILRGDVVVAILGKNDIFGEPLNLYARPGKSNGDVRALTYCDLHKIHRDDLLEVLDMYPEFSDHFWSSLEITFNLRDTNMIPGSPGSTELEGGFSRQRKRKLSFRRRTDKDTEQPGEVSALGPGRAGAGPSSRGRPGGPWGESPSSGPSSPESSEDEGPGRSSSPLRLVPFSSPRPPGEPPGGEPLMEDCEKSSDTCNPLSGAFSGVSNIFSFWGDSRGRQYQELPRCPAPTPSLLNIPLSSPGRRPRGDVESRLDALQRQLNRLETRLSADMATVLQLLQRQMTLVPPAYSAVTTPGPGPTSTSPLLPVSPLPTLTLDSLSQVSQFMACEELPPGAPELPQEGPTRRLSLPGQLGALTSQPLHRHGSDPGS

Row | Structure (SMILES) | pIC50 (Whole blood B cells; as the free base) | pIC50 (Whole blood B cells; hydrochloric acid salts) | IC50 (Whole blood B cells; hydrochloric acid salts) [nM] | IC50 at 2 h (hERG; [1]) [nM] | IC50 at 2 h (hERG; [2]) [nM] | IC50 at 2 h (hERG; [3]) [nM] | IC50 at 2 h (hERG; [4]) [nM] | IC50 (SYK lysate; as the free base) | IC50 (SYK lysate; hydrochloric acid salts) [nM]
1 | CC(C)(C)n1cc(-c2cc3ncccc3c(NC[C@]3(F)CCCNC3)n2)cn1 [Example 2, 7-[1-(1,1-Dimethylethyl)-1H-pyrazol-4-yl]-N-{[(3S)-3-fluoro-3-piperidinyl]methyl}-1,6-naphthyridin-5-amine] | > 6.00 | > 6.00 | ≤ 1000 | > 10000 | > 10000 | > 20000 | > 10000 | ≤ 100 nM and 20 nM | ≤ 316
2 | CCn1cc(-c2cc3ncccc3c(NC[C@]3(F)CCCNC3)n2)cn1 [Example 1, 7-(1-Ethyl-1H-pyrazol-4-yl)-N-{[(3S)-3-fluoro-3-piperidinyl]methyl}-1,6-naphthyridin-5-amine] | > 6.00 | > 6.00 | ≤ 1000 | > 10000 | > 10000 | > 20000 | > 10000 | ≤ 100 nM and 25.1 nM | ≤ 316
3 | CCn1cc(-c2cc3ncccc3c(OC[C@]3(F)CCCNC3)n2)cn1 [Example 4, 7-(1-Ethyl-1H-pyrazol-4-yl)-5-({[(3S)-3-fluoro-3-piperidinyl]methyl}oxy)-1,6-naphthyridine] | > 6.00 | > 6.00 | ≤ 1000 | > 10000 | > 10000 | > 20000 | > 10000 | ≤ 100 nM and 7.94 nM | ≤ 316
4 | COCn1cc(-c2cc3ncccc3c(NC[C@]3(F)CCCNC3)n2)cn1 [Example 3, N-{[(3S)-3-Fluoro-3-piperidinyl]methyl}-7-{1-[(methyloxy)methyl]-1H-pyrazol-4-yl}-1,6-naphthyridin-5-amine] | > 6.00 | > 6.00 | ≤ 1000 | > 10000 | > 10000 | > 20000 | > 10000 | ≤ 100 nM and 63.1 nM | ≤ 316

— patent US8633319B2, “7-(1H-pyrazol-4-yl)-1,6-naphthyridine compounds as Syk inhibitors” (Glaxo Group Limited, priority 2010, dated 2014)
